Assay results from patent publication US20030215817A1, “Modulation of gene expression in formation of fatty atherosclerotic lesions” (priority 2003, published 2003).
Counter-ions that a name gives are not always drawn.

Legend:
Format in all cases: in vivo, rabbit
REC1_19 (TGTT 393) mRNA = assay: TOGA analysis, REC1_19; conditions: TOGA; hypercholesterolemic plus lercanidipine racemate, eight weeks; H2 (normocholesterolemic)=1.0
Procedure: (§1) To perform the studies, New Zealand male rabbits weighing 2.0-2.5 kg (Charles River, Calco, Italy) were used. The rabbits were divided into three groups and maintained in identical experimental conditions: (1) control group (n=15); rabbits fed a cholesterol-rich diet; (2) lercanidipine-treated group (n=15); rabbits fed a cholesterol-rich diet and also treated with lercanidipine (3 mg/kg/week); and (3) (R)-lercanidipine-treated group (n=5); rabbits fed a cholesterol-rich diet and also treated with the (R)-enantiomer of lercanidipine (3 mg/kg/week). After a 2 week period of subcutaneous, once a week, pretreatment with 3 mg/kg/week of lercanidipine or (R)-lercanidipine, the rabbits received a daily cholesterol supplement for up to 8 weeks or 2 weeks, respectively. In the following examples, use of the term “lercanidipine” refers to the racemic mixture of lercanidipine hydrochloride, whereas “(R)-lercanidipine” refers to the (R)-enantiomer of lercanidipine hydrochloride.
(§2) The mRNA from the above-described groups was isolated from aorta at different time points, resulting in the following mRNA samples: (1) Day 0 Control=no administered cholesterol, no lercanidipine; (2) Day 0+lercanidipine=no administered cholesterol, treatment with lercanipidine (2 weeks; 3 mg/kg/week); (3) Day 14 Control=cholesterol diet for two weeks, no lercanidipine; (4) Day 14+lercanidipine=cholesterol diet for two weeks, treatment with lercanidipine (four weeks; 3 mg/kg/week); (5) Week 8 Control=cholesterol diet for 8 weeks, no lercanidipine; and (6) Week 8+lercanidipine=cholesterol diet for 8 weeks, treatment with lercanidipine (10 weeks; 3 mg/kg/week). In addition, Day 14+(R)-lercanidipine mRNA samples were prepared from rabbits given a cholesterol diet for two weeks and treated with 3 mg/kg/week (R)-lercanidipine for four weeks.
(§3) Aorta mRNAs were prepared in the following manner. First, the aortas from each experimental group were retrieved and shredded using a polytron homogenizer. The samples were further homogenized using a teflon pestle, after which the cellular debris, nuclei, and blood cells were pelleted by centrifugation. The supernatants were extracted twice with phenol-chloroform-isoamyl alcohol and once with chloroform-isoamyl alcohol. RNA was then precipitated from the aqueous phase with ethanol. The poly A+ mRNA was prepared using standard methods of polyA selection known in the art (Schriber et al., J. Mol. Biol., 142:93-116 (1980)).
(§4) The isolated mRNA was analyzed using a method of simultaneous sequence-specific identification of mRNAs known as TOGA, described in U.S. Pat. No. 5,459,037 and U.S. Pat. No. 5,807,680, hereby incorporated herein by reference. In a preferred embodiment, the TOGA method further comprised an additional PCR step performed using a mixture of four 5′ PCR primers and cDNA templates prepared from a population of antisense cRNAs. A final PCR step that used a mixture of 256 5′ PCR primers produced PCR products that were cDNA fragments that corresponded to the 3′-region of the starting mRNA population. The produced PCR products were then identified by: (a) the initial 5′ sequence comprising the sequence remainder of the recognition site of the restriction endonuclease used to cut and isolate the 3′ region plus the sequence of the preferably four parsing bases immediately 3′ to the remainder of the recognition site, preferably the sequence of the entire fragment; and (b) the length of the fragment. […]

[1] = system: REC1_6 (MspI ATCC 176) mRNA, ferritin light chain subunit; assay: TOGA analysis, REC1_6
Procedure: as §1, §2, §3, §4

[2] = system: REC1_13 (MspI GCCC 216) mRNA; assay: TOGA analysis, REC1_13
Procedure: as §1, §2, §3, §4

[3] = system: REC1_18 (MspI TGGT 241) mRNA; assay: TOGA analysis, REC1_18
Procedure: as §1, §2, §3, §4

[4] = system: REC1_20 (TTAC 210) mRNA, phosphofructo-1-kinase C isozyme; assay: TOGA analysis, REC1_20
Procedure: as §1, §2, §3, §4

[5] = system: REC1_8 (MspI CCCG 243) mRNA; assay: TOGA analysis, REC1_8
Procedure: as §1, §2, §3, §4

[6] = system: REC1_21 (TTCC 165) mRNA, elastin gene; assay: TOGA analysis, REC1_21
Procedure: as §1, §2, §3, §4

[7] = TOGA, hypercholesterolemic plus lercanidipine racemate, eight weeks, H2 (normocholesterolemic)=1.0

COC(=O)C1=C(C)NC(C)=C(C(=O)OC(C)(C)CN(C)CCC(c2ccccc2)c2ccccc2)C1c1cccc([N+](=O)[O-])c1 (racemic) [lercanidipine, lercanidipine hydrochloride]
Relative Abundance Rec1_19, TOGA, F (REC1_19 (TGTT 393) mRNA): 0.2
level of gene expression (TOGA), 8 Week hypercholesterol + Lercanidipine ([1]; REC1_6, ATCC 176, rabbit aorta, 8 weeks cholesterol + lercanidipine): 1302
level of gene expression (TOGA), 14 Day hypercholesterol + Lercanidipine ([1]; REC1_6, ATCC 176, rabbit aorta, 14 days cholesterol + lercanidipine): 399
level of gene expression (TOGA), Normal + Lercanidipine ([1]; REC1_6, ATCC 176, rabbit aorta, no cholesterol, lercanidipine): 120
Relative Abundance Rec1_6, TOGA, F [1, 7]: 8.8
level of gene expression, 8 Week hypercholesterol + Lercanidipine ([2]; REC1_13 GCCC 216, rabbit aorta, 8 weeks cholesterol): 4186
level of gene expression, 14 Day hypercholesterol + Lercanidipine ([2]; REC1_13 GCCC 216, rabbit aorta, 14 days cholesterol): 542
level of gene expression, Normal + Lercanidipine ([2]; REC1_13 GCCC 216, rabbit aorta, no cholesterol): 575
Relative Abundance Rec1_13, TOGA, F [2, 7]: 5.9
level of gene expression, 8 Week hypercholesterol + Lercanidipine ([3]; REC1_18 TGGT 241, rabbit aorta, cholesterol 8 weeks): 935
level of gene expression, 14 Day hypercholesterol + Lercanidipine ([3]; REC1_18 TGGT 241, rabbit aorta, cholesterol 14 days): 112
level of gene expression, Normal + Lercanidipine ([3]; REC1_18 TGGT 241, rabbit aorta, no cholesterol): 316
Relative Abundance Rec1_18, TOGA, F [3, 7]: 5.0
level of gene expression, 8 Week hypercholesterol + Lercanidipine ([4]; REC1_20 TTAC 210, rabbit aorta, cholesterol 8 weeks): 260
level of gene expression, 14 Day hypercholesterol + Lercanidipine ([4]; REC1_20 TTAC 210, rabbit aorta, cholesterol 14 days): 348
level of gene expression, Normal + Lercanidipine ([4]; REC1_20 TTAC 210, rabbit aorta, no cholesterol): 607
Relative Abundance Rec1_20, TOGA, F [4, 7]: 0.3
level of gene expression, 8 Week hypercholesterol + Lercanidipine ([5]; REC1_8 CCCG 243, rabbit aorta, 8 weeks cholesterol): 1136
level of gene expression, 14 Day hypercholesterol + Lercanidipine ([5]; REC1_8 CCCG 243, rabbit aorta, 14 days cholesterol): 373
level of gene expression, Normal + Lercanidipine ([5]; REC1_8 CCCG 243, rabbit aorta, no cholesterol): 163
Relative Abundance Rec1_8, TOGA, F [5, 7]: 13.1
level of gene expression, 8 Week hypercholesterol + Lercanidipine ([6]; REC1_21 TTCC 165, rabbit aorta, cholesterol 8 weeks): 486
level of gene expression, 14 Day hypercholesterol + Lercanidipine ([6]; REC1_21 TTCC 165, rabbit aorta, cholesterol 14 days): 1507
level of gene expression, Normal + Lercanidipine ([6]; REC1_21 TTCC 165, rabbit aorta, no cholesterol): 2064
Relative Abundance Rec1_21, TOGA, F [6, 7]: 0.2
